Measurements published in patent US10562857B2 (AFASCI, Inc., priority 2015, dated 2020).

Each compound was assayed against T1, Cav3.2 channel (Homo sapiens, UniProt O95180) (assay: Whole-cell patch clamp of T-type Cav3.2 channel expressed in HEK293 cells). Settings: HEK293; Table 1 primary screening; 1 μM.
T1 construct: expressed in transfected cells; host or cells: HEK-293, tetracycline inducible expression system (Invitrogen)
Type: cell-based
Protocol: Cav3.1, Cav3.2 or Cav3.3 channels were expressed in human embryonic kidney (HEK)-293 cells using a tetracycline inducible expression system (Invitrogen). Cells were maintained in 25 cm^2 tissue culture flasks at 37° C., 5% CO2, and 100% relative humidity in D-MEM/F12 (Dulbecco's Modified Eagle Medium/Nutrient Mixture F-12; Gibco) supplemented with fetal bovine serum (FBS, 10% v/v), sodium pyruvate (0.5 mM, Gibco), penicillin-streptomycin (100 U/mL, 100 μg/mL) and Geneticin® Selective antibiotic (G418; 0.5 mg/mL). Cells were detached from the flask base using a non-enzymatic cell dissociation solution (Cellstripper, Corning), removed and re-seeded on to poly-D-lysine coated glass coverslips in 35 mm dishes. Cells in dishes were further supplemented with G418 at a final concentration of 1 mg/mL and after 24 hours, expression of Cav3.2 was induced with 1 μg/mL tetracycline. The medium for the HEK-293 cells was composed of D-MEM/F-12 (Dulbecco's Modified Eagle Medium/Nutrient Mixture F-12; Gibco, #11330-032) and 15 mM HEPES buffer, with L-glutamine and pyridoxine hydrochloride. It was supplemented with FBS (Fetal Bovine Serum), P/S (Penicillin/Streptomycin) (Gibco, #15140-122), and sodium pyruvate 100 mM (Gibco, #11360-070). At least 24 hours before the assay, expression of the alpha-2-delta-1 and beta2a subunits of the calcium channel were induced with 1 ug/mL tetracycline.
Whole-cell voltage clamp recordings were performed on rat or mouse DRG neurons within 2 days after acutely dissociation or cultured HEK293 cells expressing T-type channels (encoded by Cav3.1, Cav3.2 or Cav3.3 channels). All experiments were performed at room temperature (around 21° C.). Whole-cell currents were recorded using a MultiClamp 700B amplifier and analyzed offline with pCLAMP10.4 software (Molecular Devices, LLC, Sunnyvale Calif., USA). To record calcium currents in DRG and HEK293 cells, the external solution was composed (in mM) of 115 choline-Cl, 30 TEA-Cl, 2 CaCl2, 10 glucose and 10 HEPES (pH 7.3-7.4 adjusted with TEA-OH; osmolality verified as 295 mOsm/kg). The internal solution was composed (in mM) of 125 CsCl, 10 HEPES (acid), 10 EGTA (ethylene glycol tetraacetic acid), 1 CaCl2, 1 MgCl2, 4 MgATP and 0.3 MgGTP (pH 7.3-7.4 adjusted with CsOH; osmolality verified as 295 mOsm/kg). Since the sodium ions were absent in the external solution, tetrodoctoxin was not needed. Calcium currents were recorded at a holding potential of −100 mV and then depolarized to −30 mV for 100 ms to activate either Cav3.1, Cav3.2, or Cav3.3 expressed in HEK cells. An interpulse interval of 10 seconds allowed the channel recovery from inactivation, and achieved stable current recordings. To record sodium (Na^+) currents in DRG neurons, the external solution used the modified Krebs solution specified above. The internal solution was composed (in mM) of 120 CsF, 10 HEPES, 11 EGTA, 1 CaCl2, 1 MgCl2, 10 TEA-Cl, 4 MgATP and 0.3 MgGTP (pH 7.3-7.4 adjusted with CsOH). […] To record potassium currents in DRG neurons, the external solution used the modified Kreb's solution specified above. The internal solution was composed (in mM) of 65 KCl, 80 KF, 5 KOH, 10 EGTA, 2 MgATP (pH 7.3-7.4 adjusted with KOH). Recording electrodes were fabricated using a P-87 puller (Sutter Instrument Co., Novato, Calif., USA). The tip of resistance was 3-4 MQ in bath and the series resistance was less than 10 MΩ after whole cell configuration. All reagents were purchased from Sigma unless specified otherwise. Test compounds were usually applied via a rapid solution exchange system with 8 fine polyplastic tubings (100 μm, OD) glued in a holder in parallel and located closely to the recorded cells. […]

T1 sequence (O95180 whole entry): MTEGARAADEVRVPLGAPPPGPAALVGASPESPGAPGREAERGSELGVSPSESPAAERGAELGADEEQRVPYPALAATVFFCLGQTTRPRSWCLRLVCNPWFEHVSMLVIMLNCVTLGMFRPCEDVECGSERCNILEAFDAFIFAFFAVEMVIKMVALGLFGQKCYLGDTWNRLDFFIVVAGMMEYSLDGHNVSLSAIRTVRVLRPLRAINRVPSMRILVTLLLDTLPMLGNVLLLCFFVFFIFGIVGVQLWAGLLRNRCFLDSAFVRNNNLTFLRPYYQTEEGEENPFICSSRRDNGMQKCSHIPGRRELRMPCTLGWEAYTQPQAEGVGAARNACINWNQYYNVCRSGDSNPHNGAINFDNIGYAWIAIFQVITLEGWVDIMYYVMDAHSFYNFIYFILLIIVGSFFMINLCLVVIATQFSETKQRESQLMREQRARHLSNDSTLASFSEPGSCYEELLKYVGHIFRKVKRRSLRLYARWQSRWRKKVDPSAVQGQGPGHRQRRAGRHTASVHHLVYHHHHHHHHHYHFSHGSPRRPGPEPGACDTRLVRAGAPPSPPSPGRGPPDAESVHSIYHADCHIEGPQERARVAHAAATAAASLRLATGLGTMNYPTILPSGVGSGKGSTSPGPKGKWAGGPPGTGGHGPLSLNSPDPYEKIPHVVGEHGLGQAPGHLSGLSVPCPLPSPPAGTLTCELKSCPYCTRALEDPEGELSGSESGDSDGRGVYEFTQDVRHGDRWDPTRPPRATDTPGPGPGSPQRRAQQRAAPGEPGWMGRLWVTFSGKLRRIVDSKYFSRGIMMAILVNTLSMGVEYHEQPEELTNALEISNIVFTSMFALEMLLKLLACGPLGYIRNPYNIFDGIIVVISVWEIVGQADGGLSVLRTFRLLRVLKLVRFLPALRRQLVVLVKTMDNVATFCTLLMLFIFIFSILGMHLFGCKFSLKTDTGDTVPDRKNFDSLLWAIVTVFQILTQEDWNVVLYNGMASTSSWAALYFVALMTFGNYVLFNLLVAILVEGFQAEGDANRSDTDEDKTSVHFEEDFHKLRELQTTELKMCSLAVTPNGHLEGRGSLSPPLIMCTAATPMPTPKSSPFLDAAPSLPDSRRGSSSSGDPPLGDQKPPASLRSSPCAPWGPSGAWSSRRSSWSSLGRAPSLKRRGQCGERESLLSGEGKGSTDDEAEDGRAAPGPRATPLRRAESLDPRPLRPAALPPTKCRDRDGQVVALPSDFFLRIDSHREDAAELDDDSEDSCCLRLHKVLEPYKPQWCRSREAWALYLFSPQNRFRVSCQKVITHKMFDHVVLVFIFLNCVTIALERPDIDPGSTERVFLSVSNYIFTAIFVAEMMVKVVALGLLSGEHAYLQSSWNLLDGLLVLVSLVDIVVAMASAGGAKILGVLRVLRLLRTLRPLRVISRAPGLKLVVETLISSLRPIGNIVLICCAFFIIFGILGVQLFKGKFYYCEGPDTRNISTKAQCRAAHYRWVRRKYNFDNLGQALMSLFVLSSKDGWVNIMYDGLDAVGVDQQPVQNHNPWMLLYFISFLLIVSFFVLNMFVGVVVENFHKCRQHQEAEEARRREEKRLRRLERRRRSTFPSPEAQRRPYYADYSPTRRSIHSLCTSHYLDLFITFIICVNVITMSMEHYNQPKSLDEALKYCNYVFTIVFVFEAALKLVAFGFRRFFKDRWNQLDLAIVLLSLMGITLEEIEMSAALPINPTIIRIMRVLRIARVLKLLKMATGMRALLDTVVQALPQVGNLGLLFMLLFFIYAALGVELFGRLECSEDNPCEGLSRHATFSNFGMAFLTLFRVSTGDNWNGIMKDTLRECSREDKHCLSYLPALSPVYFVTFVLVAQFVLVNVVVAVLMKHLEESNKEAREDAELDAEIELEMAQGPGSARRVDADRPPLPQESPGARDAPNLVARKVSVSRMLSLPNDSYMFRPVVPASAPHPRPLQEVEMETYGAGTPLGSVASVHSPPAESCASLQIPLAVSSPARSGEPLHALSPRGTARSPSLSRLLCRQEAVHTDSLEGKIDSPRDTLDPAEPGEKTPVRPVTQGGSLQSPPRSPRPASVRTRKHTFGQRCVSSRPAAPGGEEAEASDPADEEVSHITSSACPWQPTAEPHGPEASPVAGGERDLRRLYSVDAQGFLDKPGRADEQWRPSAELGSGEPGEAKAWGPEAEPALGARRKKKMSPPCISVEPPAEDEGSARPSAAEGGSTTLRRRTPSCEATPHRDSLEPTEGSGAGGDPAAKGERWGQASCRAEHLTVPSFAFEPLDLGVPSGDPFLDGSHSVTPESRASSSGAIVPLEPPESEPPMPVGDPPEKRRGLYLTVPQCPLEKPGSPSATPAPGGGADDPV

Row | Compound | inhibition at 1 µM
1 | CC(C)(C)CCN1CCC2(CC1)CC2NC(=O)c1cccc(C(F)(F)F)c1 (stereo not shown) [Example 29, N-(6-(3,3-Dimethylbutyl)-6-azaspiro[2.5]octan-1-yl)-3-(trifluoromethyl)benzamide] | 69%
2 | COc1cc(OC)cc(C(=O)NC2CC23CCN(CCC(C)(C)C)CC3)c1 (stereo not shown) [Example 33, N-(6-(3,3-Dimethylbutyl)-6-azaspiro[2.5]octan-1-yl)-3,5-dimethoxybenzamide] | 63%
3 | CC(C)(C)CCN1CCC2(CC1)CC2NS(=O)(=O)c1cc(Cl)cc(Cl)c1 (stereo not shown) [Example 51, 3,5-Dichloro-N-(6-(3,3-dimethylbutyl)-6-azaspiro[2.5]octan-1-yl)benzenesulfonamide] | 47%

Further lines, results first:

Row | inhibition at 1 µM | Compound
4 | 44% | O=C(CN1CCC(CO)(CNC(=O)c2ccccc2F)CC1)Nc1ccccc1 [Example 110, 2-fluoro-N-((4-(hydroxymethyl)-1-(2-oxo-2-(phenylamino)ethyl)piperidin-4-yl)methyl)benzamide]
5 | 24% | O=C(Nc1nnc(-c2ccc(Cl)s2)o1)c1ccccc1 [Example 117, N-(5-(5-Chlorothiophen-2-yl)-1,3,4-oxadiazol-2-yl)benzamide]
6 | 75% | O=C(Cc1cccc(Cl)c1)Nc1nnc(-c2ccc(Cl)s2)o1 [Example 121, 2-(3-Chlorophenyl)-N-(5-(5-chlorothiophen-2-yl)-1,3,4-oxadiazol-2-yl)acetamide]
7 | 7.1% | O=C(Nc1nnc(-c2ccccc2)o1)c1cnccn1 [Example 124, N-(5-Phenyl-1,3,4-oxadiazol-2-yl)pyrazine-2-carboxamide]

Same assay, conditions: HEK293; Table 1 primary screening; 3 μM as indicated in cell; read-out: % inhibition at 3 μM

Row | inhibition at 3 µM | Compound
8 | 55.3% | CC(C)(C)CCN1CCC2(CC1)CC2NC(=O)c1ccccc1 (stereo not shown) [Example 2, N-(6-(3,3-Dimethylbutyl)-6-azaspiro[2.5]octan-1-yl)benzamide]
9 | 47.7% | O=C(NC1CC12CCN(CCc1ccccc1)CC2)c1ccccc1 (stereo not shown) [Example 3, N-(6-Phenethyl-6-azaspiro[2.5]octan-1-yl)benzamide]

Same assay, conditions: Table 1; tested at at least 4 concentrations; read-out: IC50

Row | Compound | IC50
10 | O=C(NC1CC12CCN(Cc1ccccc1)CC2)c1ccc(Cl)c(Cl)c1 (stereo not shown) [Example 10, N-(6-Benzyl-6-azaspiro[2.5]octan-1-yl)-3,4-dichlorobenzamide] | 800 nM
11 | CC(C)(C)CCN1CCC2(CC1)CC2NC(=O)Cc1cc(C(F)(F)F)cc(C(F)(F)F)c1 (stereo not shown) [Example 31, 2-(3,5-Bis(trifluoromethyl)phenyl)-N-(6-(3,3-dimethylbutyl)-6-azaspiro[2.5]octan-1-yl)acetamide] | 80 nM
12 | CN(C(=O)c1cc(Cl)cc(Cl)c1)C1CC12CCN(CCC(C)(C)C)CC2 (stereo not shown) [Example 54, 3,5-Dichloro-N-(6-(3,3-dimethylbutyl)-6-azaspiro[2.5]octan-1-yl)-N-methylbenzamide] | 230 nM
13 | CC(C)(C)CCN1CCC2(CC1)CC2NC(=O)c1cc(F)cc(C(F)(F)F)c1 (stereo not shown) [Example 24, N-(6-(3,3-Dimethylbutyl)-6-azaspiro[2.5]octan-1-yl)-3-fluoro-5-(trifluoromethyl)benzamide] | 20 nM
14 | CC(C)(C)NC(=O)CN1CCC2(CC1)CC2NC(=O)c1ccc(Cl)c(Cl)c1 (stereo not shown) [Example 9, N-(6-(2-(tert-Butylamino)-2-oxoethyl)-6-azaspiro[2.5]octan-1-yl)-3,4-dichlorobenzamide] | 80 nM
15 | O=C(CN1CCC2(CC1)CC2NC(=O)c1cc(Cl)cc(Cl)c1)c1ccc(C(F)(F)F)cc1 (stereo not shown) [Example 50, 3,5-Dichloro-N-(6-(2-oxo-2-(4-(trifluoromethyl)phenyl)ethyl)-6-azaspiro[2.5]octan-1-yl)benzamide] | 80 nM
16 | CC(C)(C)CCN1CCC2(CCC2NC(=O)c2cc(Cl)cc(Cl)c2)CC1 (stereo not shown) [Example 69, 3,5-Dichloro-N-(7-(3,3-dimethylbutyl)-7-azaspiro[3.5]nonan-1-yl)benzamide] | 280 nM
17 | CC(C)NC(=O)CN1CCC2(CC1)CC2NC(=O)c1cc(Cl)cc(Cl)c1 (stereo not shown) [Example 37, 3,5-Dichloro-N-(6-(2-(isopropylamino)-2-oxoethyl)-6-azaspiro[2.5]octan-1-yl)benzamide] | 50 nM
18 | O=C(NC1CC12CCN(CC(O)c1ccc(C(F)(F)F)cc1)CC2)c1cc(Cl)cc(Cl)c1 (stereo not shown) [Example 59, 3,5-Dichloro-N-(6-(2-hydroxy-2-(4-(trifluoromethyl)phenyl)ethyl)-6-azaspiro[2.5]octan-1-yl)benzamide] | 70 nM
19 | O=C(NC1CC12CCN(CCc1ccc(F)cc1)CC2)c1cc(Cl)cc(Cl)c1 (stereo not shown) [Example 40, 3,5-Dichloro-N-(6-(4-fluorophenethyl)-6-azaspiro[2.5]octan-1-yl)benzamide] | 160 nM
20 | O=C(NC1CC12CCN(CCCC1CCOCC1)CC2)c1cc(Cl)cc(Cl)c1 (stereo not shown) [Example 48, 3,5-Dichloro-N-(6-(3-(tetrahydro-2H-pyran-4-yl)propyl)-6-azaspiro[2.5]octan-1-yl)benzamide] | 260 nM
21 | CC(C)(C)NC(=O)CN1CCC2(CC1)CC2CNC(=O)c1cc(Cl)cc(Cl)c1 (stereo not shown) [Example 87, N-((6-(2-(tert-Butylamino)-2-oxoethyl)-6-azaspiro[2.5]octan-1-yl)methyl)-3,5-dichlorobenzamide] | 690 nM
22 | CC(C)(C)CCN1CCC2(CC1)CC2NC(=O)c1cccc(C#N)c1 (stereo not shown) [Example 34, 3-Cyano-N-(6-(3,3-dimethylbutyl)-6-azaspiro[2.5]octan-1-yl)benzamide] | 1400 nM

Further lines, results first:

Row | IC50 | Compound
23 | 90 nM | O=C(NCC1CC12CCN(CCc1ccccc1)CC2)c1cc(Cl)cc(Cl)c1 (stereo not shown) [Example 89, 3,5-Dichloro-N-((6-phenethyl-6-azaspiro[2.5]octan-1-yl)methyl)benzamide]
24 | 130 nM | CC(C)(C)CCN1CCC2(CC1)CC2CNc1cc(Cl)cc(Cl)c1 (stereo not shown) [Example 94]
25 | 60 nM | CC(C)(C)CCN1CCC2(CC1)CC2C(=O)Nc1cc(Cl)cc(Cl)c1 (stereo not shown) [Example 91, N-(3,5-Dichlorophenyl)-6-(3,3-dimethylbutyl)-6-azaspiro[2.5]octane-1-carboxamide]
26 | 200 nM | CC(C)(C)NC(=O)CN1CCC2(CC1)C[C@H]2C(=O)Nc1cc(F)cc(C(F)(F)F)c1 (single isomer, unassigned) [Example 133, (R)-6-(2-(tert-Butylamino)-2-oxoethyl)-N-(3-fluoro-5-(trifluoromethyl)phenyl)-6-azaspiro[2.5]octane-1-carboxamide or (S)-6-(2-(tert-Butylamino)-2-oxoethyl)-N-(3-fluoro-5-(trifluoromethyl)phenyl)-6-azaspiro[2.5]octane-1-carboxamide]
27 | 520 nM | CC(C)NC(=O)CN1CCC2(CC1)CC2NC(=O)c1cc(F)cc(Cl)c1 (single isomer, unassigned) [Example 140, (R)-3-Chloro-5-fluoro-N-(6-(2-(isopropylamino)-2-oxoethyl)-6-azaspiro[2.5]octan-1-yl)benzamide or (S)-3-Chloro-5-fluoro-N-(6-(2-(isopropylamino)-2-oxoethyl)-6-azaspiro[2.5]octan-1-yl)benzamide]
28 | 120 nM | CC(C)(C)C(=O)CN1CCC2(CC1)C[C@H]2NC(=O)c1cc(F)cc(Cl)c1 (single isomer, unassigned) [Example 134, (R)-3-Chloro-N-(6-(3,3-dimethyl-2-oxobutyl)-6-azaspiro[2.5]octan-1-yl)-5-fluorobenzamide or (S)-3-Chloro-N-(6-(3,3-dimethyl-2-oxobutyl)-6-azaspiro[2.5]octan-1-yl)-5-fluorobenzamide]
